Results published in patent US20230365592A1 (Agios Pharmaceuticals, Inc., priority 2022, published 2023).

biological target: T1, human PAH with the R408W mutation (Homo sapiens, UniProt P00439, R408W); assay: Cell Based Phenylalanine Flux Assay; conditions: A375 cells expressing human R408W PAH; 24 hrs compound incubation; 13C-Tyrosine by LC-MS; average where tested multiple times; read-out: AC50;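 note: after compound treatment, cells received sepiapterin plus isotope-labelled Phenylalanine for 4 hours, then labelled Tyrosine in the medium was quantified, 10-point 2-fold dilution series run in duplicate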
T1 construct: expressed in transfected cells
T1 sequence (P00439 1-452 R408W): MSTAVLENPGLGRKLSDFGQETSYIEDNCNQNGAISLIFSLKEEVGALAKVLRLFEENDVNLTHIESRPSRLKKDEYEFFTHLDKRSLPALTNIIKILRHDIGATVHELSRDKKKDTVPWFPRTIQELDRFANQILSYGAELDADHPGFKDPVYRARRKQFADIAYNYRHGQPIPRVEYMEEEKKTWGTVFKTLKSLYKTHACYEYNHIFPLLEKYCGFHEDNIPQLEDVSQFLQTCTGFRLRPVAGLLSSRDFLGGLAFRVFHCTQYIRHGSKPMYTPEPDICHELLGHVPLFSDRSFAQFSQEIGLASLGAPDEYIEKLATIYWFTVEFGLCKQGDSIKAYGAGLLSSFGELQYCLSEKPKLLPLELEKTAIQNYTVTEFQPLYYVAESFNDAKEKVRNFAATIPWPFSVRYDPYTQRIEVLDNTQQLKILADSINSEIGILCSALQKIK

Row | Compound | AC50 [nM]
1 | COc1cccn2nc([C@H]3c4nc[nH]c4CCN3C(=O)c3cc(C(F)F)nn3C)cc12 [Example 887, (R)-(3-(difluoromethyl)-1-methyl-1H-pyrazol-5-yl)(4-(4-methoxypyrazolo[1,5-a]pyridin-2-yl)-6,7-dihydro-1H-imidazo[4,5-c]pyridin-5(4H)-yl)methanone] | > 5000
2 | Cn1cncc1-c1nc(C(F)F)c(C(=O)N2CCc3[nH]cnc3[C@@H]2c2cc3c(F)cccn3n2)o1 [Example 888, (R)-(4-(difluoromethyl)-2-(1-methyl-1H-imidazol-5-yl)oxazol-5-yl)(4-(4-fluoropyrazolo[1,5-a]pyridin-2-yl)-6,7-dihydro-1H-imidazo[4,5-c]pyridin-5(4H)-yl)methanone] | > 5000
3 | Cn1cncc1-c1nc(C(F)F)c(C(=O)N2CCc3[nH]cnc3[C@H]2c2cc3c(F)cccn3n2)o1 [Example 889, (S)-(4-(difluoromethyl)-2-(1-methyl-1H-imidazol-5-yl)oxazol-5-yl)(4-(4-fluoropyrazolo[1,5-a]pyridin-2-yl)-6,7-dihydro-1H-imidazo[4,5-c]pyridin-5(4H)-yl)methanone] | 500 to 1000
4 | Cc1cccn2nc([C@H]3c4nc[nH]c4CCN3C(=O)c3oc(-c4cncn4C)nc3C(F)F)cc12 [Example 890, (R)-(4-(difluoromethyl)-2-(1-methyl-1H-imidazol-5-yl)oxazol-5-yl)(4-(4-methylpyrazolo[1,5-a]pyridin-2-yl)-6,7-dihydro-1H-imidazo[4,5-c]pyridin-5(4H)-yl)methanone] | > 5000
5 | Cc1cccn2nc([C@@H]3c4nc[nH]c4CCN3C(=O)c3oc(-c4cncn4C)nc3C(F)F)cc12 [Example 891, (S)-(4-(difluoromethyl)-2-(1-methyl-1H-imidazol-5-yl)oxazol-5-yl)(4-(4-methylpyrazolo[1,5-a]pyridin-2-yl)-6,7-dihydro-1H-imidazo[4,5-c]pyridin-5(4H)-yl)methanone] | < 500
6 | Cc1cc(C(=O)N2CCc3[nH]cnc3[C@H]2c2cc3ccccn3n2)n(C)n1 [Example 892, (S)-(1,3-dimethyl-1H-pyrazol-5-yl)(4-(pyrazolo[1,5-a]pyridin-2-yl)-6,7-dihydro-1H-imidazo[4,5-c]pyridin-5(4H)-yl)methanone] | < 500
7 | Cc1cccn2nc([C@H]3c4nc[nH]c4CCN3C(=O)c3nnc(-c4cccnc4)o3)cc12 [Example 895, (R)-(4-(4-methylpyrazolo[1,5-a]pyridin-2-yl)-6,7-dihydro-1H-imidazo[4,5-c]pyridin-5(4H)-yl)(5-(pyridin-3-yl)-1,3,4-oxadiazol-2-yl)methanone] | > 5000
8 | O=C(c1nnc(-c2cccnc2)o1)N1CCc2[nH]cnc2[C@H]1c1cc2c(F)cccn2n1 [Example 896, (S)-(4-(4-fluoropyrazolo[1,5-a]pyridin-2-yl)-6,7-dihydro-1H-imidazo[4,5-c]pyridin-5(4H)-yl)(5-(pyridin-3-yl)-1,3,4-oxadiazol-2-yl)methanone] | < 500
9 | O=C(c1nnc(-c2cccnc2)o1)N1CCc2[nH]cnc2[C@@H]1c1cc2c(F)cccn2n1 [Example 897, (R)-(4-(4-fluoropyrazolo[1,5-a]pyridin-2-yl)-6,7-dihydro-1H-imidazo[4,5-c]pyridin-5(4H)-yl)(5-(pyridin-3-yl)-1,3,4-oxadiazol-2-yl)methanone] | > 5000
10 | COc1cccn2nc([C@@H]3c4nc[nH]c4CCN3C(=O)c3ccnn3-c3ccccn3)cc12 [Example 898, (S)-(4-(4-methoxypyrazolo[1,5-a]pyridin-2-yl)-6,7-dihydro-1H-imidazo[4,5-c]pyridin-5(4H)-yl)(1-(pyridin-2-yl)-1H-pyrazol-5-yl)methanone] | < 500
11 | Cc1cc(C(=O)N2CCc3[nH]cnc3[C@H]2c2cc3c(C)cccn3n2)n(C)n1 [Example 900, (S)-(1,3-dimethyl-1H-pyrazol-5-yl)(4-(4-methylpyrazolo[1,5-a]pyridin-2-yl)-6,7-dihydro-1H-imidazo[4,5-c]pyridin-5(4H)-yl)methanone] | < 500
12 | Cc1cc(C(=O)N2CCc3[nH]cnc3[C@@H]2c2cc3c(C)cccn3n2)n(C)n1 [Example 901, (R)-(1,3-dimethyl-1H-pyrazol-5-yl)(4-(4-methylpyrazolo[1,5-a]pyridin-2-yl)-6,7-dihydro-1H-imidazo[4,5-c]pyridin-5(4H)-yl)methanone] | > 5000
13 | Cn1cc(-c2nc(C(F)F)c(C(=O)N3CCc4[nH]cnc4[C@H]3c3cc4c(F)cccn4n3)o2)cn1 [Example 902, (S)-(4-(difluoromethyl)-2-(1-methyl-1H-pyrazol-4-yl)oxazol-5-yl)(4-(4-fluoropyrazolo[1,5-a]pyridin-2-yl)-6,7-dihydro-1H-imidazo[4,5-c]pyridin-5(4H)-yl)methanone] | < 500
14 | Cn1cc(-c2nc(C(F)F)c(C(=O)N3CCc4[nH]cnc4[C@@H]3c3cc4c(F)cccn4n3)o2)cn1 [Example 903, (R)-(4-(difluoromethyl)-2-(1-methyl-1H-pyrazol-4-yl)oxazol-5-yl)(4-(4-fluoropyrazolo[1,5-a]pyridin-2-yl)-6,7-dihydro-1H-imidazo[4,5-c]pyridin-5(4H)-yl)methanone] | 1000 to 5000
15 | O=C(c1nnc(-c2ncccc2F)o1)N1CCc2[nH]cnc2[C@@H]1c1cc2c(C(F)(F)F)cccn2n1 [Example 904, (R)-(5-(3-fluoropyridin-2-yl)-1,3,4-oxadiazol-2-yl)(4-(4-(trifluoromethyl)pyrazolo[1,5-a]pyridin-2-yl)-6,7-dihydro-1H-imidazo[4,5-c]pyridin-5(4H)-yl)methanone] | > 5000
16 | O=C(c1nnc(-c2ncccc2F)o1)N1CCc2[nH]cnc2[C@H]1c1cc2c(C(F)(F)F)cccn2n1 [Example 905, (S)-(5-(3-fluoropyridin-2-yl)-1,3,4-oxadiazol-2-yl)(4-(4-(trifluoromethyl)pyrazolo[1,5-a]pyridin-2-yl)-6,7-dihydro-1H-imidazo[4,5-c]pyridin-5(4H)-yl)methanone] | < 500
17 | O=C(c1nnc(-c2cnn(C(F)F)c2)o1)N1CCc2[nH]cnc2[C@H]1c1cc2c(C(F)(F)F)cccn2n1 [Example 906, (S)-(5-(1-(difluoromethyl)-1H-pyrazol-4-yl)-1,3,4-oxadiazol-2-yl)(4-(4-(trifluoromethyl)pyrazolo[1,5-a]pyridin-2-yl)-6,7-dihydro-1H-imidazo[4,5-c]pyridin-5(4H)-yl)methanone] | < 500
18 | O=C(c1nnc(-c2cnn(C(F)F)c2)o1)N1CCc2[nH]cnc2[C@@H]1c1cc2c(C(F)(F)F)cccn2n1 [Example 907, (R)-(5-(1-(difluoromethyl)-1H-pyrazol-4-yl)-1,3,4-oxadiazol-2-yl)(4-(4-(trifluoromethyl)pyrazolo[1,5-a]pyridin-2-yl)-6,7-dihydro-1H-imidazo[4,5-c]pyridin-5(4H)-yl)methanone] | > 5000
19 | O=C(c1nnc(-c2ccn(C(F)F)n2)o1)N1CCc2[nH]cnc2[C@@H]1c1cc2c(C(F)(F)F)cccn2n1 [Example 908, (R)-(5-(1-(difluoromethyl)-1H-pyrazol-3-yl)-1,3,4-oxadiazol-2-yl)(4-(4-(trifluoromethyl)pyrazolo[1,5-a]pyridin-2-yl)-6,7-dihydro-1H-imidazo[4,5-c]pyridin-5(4H)-yl)methanone] | 1000 to 5000
20 | O=C(c1nnc(-c2ccn(C(F)F)n2)o1)N1CCc2[nH]cnc2[C@H]1c1cc2c(C(F)(F)F)cccn2n1 [Example 909, (S)-(5-(1-(difluoromethyl)-1H-pyrazol-3-yl)-1,3,4-oxadiazol-2-yl)(4-(4-(trifluoromethyl)pyrazolo[1,5-a]pyridin-2-yl)-6,7-dihydro-1H-imidazo[4,5-c]pyridin-5(4H)-yl)methanone] | < 500
21 | COc1ccc(-c2nnc(C(=O)N3CCc4[nH]cnc4[C@H]3c3cc4cccc(C)n4n3)o2)nc1 [Example 910, (S)-(5-(5-methoxypyridin-2-yl)-1,3,4-oxadiazol-2-yl)(4-(7-methylpyrazolo[1,5-a]pyridin-2-yl)-6,7-dihydro-1H-imidazo[4,5-c]pyridin-5(4H)-yl)methanone] | 500 to 1000
22 | COc1ccc(-c2nnc(C(=O)N3CCc4[nH]cnc4[C@@H]3c3cc4cccc(C)n4n3)o2)nc1 [Example 911, (R)-(5-(5-methoxypyridin-2-yl)-1,3,4-oxadiazol-2-yl)(4-(7-methylpyrazolo[1,5-a]pyridin-2-yl)-6,7-dihydro-1H-imidazo[4,5-c]pyridin-5(4H)-yl)methanone] | > 5000
23 | Cc1cccc2cc([C@H]3c4nc[nH]c4CCN3C(=O)c3nnc(-c4ncccc4F)o3)nn12 [Example 913, (R)-(5-(3-fluoropyridin-2-yl)-1,3,4-oxadiazol-2-yl)(4-(7-methylpyrazolo[1,5-a]pyridin-2-yl)-6,7-dihydro-1H-imidazo[4,5-c]pyridin-5(4H)-yl)methanone] | > 5000
24 | Cc1cccc2cc([C@@H]3c4nc[nH]c4CCN3C(=O)c3nnc(-c4cnn(C(F)F)c4)o3)nn12 [Example 914, (S)-(5-(1-(difluoromethyl)-1H-pyrazol-4-yl)-1,3,4-oxadiazol-2-yl)(4-(7-methylpyrazolo[1,5-a]pyridin-2-yl)-6,7-dihydro-1H-imidazo[4,5-c]pyridin-5(4H)-yl)methanone] | 500 to 1000
25 | Cc1nc(C(=O)N2CCc3[nH]cnc3[C@H]2c2cc3c(C)cccn3n2)n(C)n1 [Example 916, (S)-(1,3-dimethyl-1H-1,2,4-triazol-5-yl)(4-(4-methylpyrazolo[1,5-a]pyridin-2-yl)-6,7-dihydro-1H-imidazo[4,5-c]pyridin-5(4H)-yl)methanone] | < 500
